# Key:
# PLC-β4^−/− mice [1] = assay: Hippocampal EEG theta rhythm in a novel environment after rivastigmine; type: in vivo; conditions: 0.5 mg/kg i.p.
# Protocol: For electrode implantation, the animals were anesthetized with pentobarbital ([…], i.p.) and held in a stereotaxic apparatus with bregma and lambda in the same horizontal plane. Hippocampal EEG recordings were performed using Teflon-coated tungsten electrodes (150 um) implanted in the hippocampal fissure with grounding over the cerebellum (from bregma, 2.0 mm anteroposterior, 1.2 mm mediolateral, and 1.8 mm dorsoventral). The position of the electrodes was verified by light microscopy in Nissl-stained sections according to published protocols. Field potential was amplified (×1,000), bandpass-filtered (bandpass-filtered) (0.1-100 Hz), digitized with 12-bit resolution continuously at 1 kHz sampling, and recorded on a personal computer.
# The EEG EEG data were collected in 4 s segments and fast-Fourier transformed (FFT). The data were continuously monitored for movement artifacts, and the recording of each segment was manually verified by the experimenter, blinded to the genotype of the animals. […] To compare the EEG spectral characteristics of hippocampal electrical activities, EEG spectral power in 1 Hz bins was calculated using FFT (Hamming window) of each 4 s epoch. […]
# Cholinergic and noncholinergic theta rhythms associated with different behaviors were recorded. […] Non-cholinergic type I theta rhythms were recorded from mice walking in an open chamber or running on a wheel. […]
# PLC-β4^−/− mice [2] = assay: Open-field thigmotaxis test after rivastigmine; type: in vivo; conditions: 0.5 mg/kg i.p., 60 min before test
# Protocol: Open field thigmotaxis was assessed by placing mice in the center of an open field apparatus (40×40×40 cm) under dim lighting. During a 10 min observation period, locomotor activity, number of central crosses, and time spent in the central sector of the open field were recorded and analyzed by PC-based video behavior assay system (TSE, Bad Homburg, Germany). Thigmotaxis index was defined as a ratio of the number of entries into the central part of a testing arena to the locomotor activity. The thigmotaxis index was calculated for each mouse separately and used to calculate means and SEMs for a given experimental group (Treit, D. & Fundytus, M., Pharmacol. Biochem. Behav. 31, 959-962, 1988; Sienkiewicz-Jarosz, H. et al., J Neural Transm. 107, 1403-1412, 2000).
# (§1) rivastigmine (Novartis Pharma, Basel, Switzerland), which is a cholinergic enhancer, was dissolved in saline. Animals were injected intraperitoneally (i.p.) with 0.5 mg/kg rivastigmine 60 min before the start of anxiety behavioral test (total volume, 5 ml/kg). […] Both PLC-β4^+/+(WT) and PLC-β4^−/−(KO) mice were randomly assigned to one of the following treatment groups: (1) WT-sham (wild-type mice with intraperitoneal injection of saline; n=10), (2) KO-sham (PLC-β4^−/− mice with intraperitoneal injection of saline; n=10), and (3) KO-rivastigmine (PLC-β4^−/− mice with intraperitoneal injection of rivastigmine; n=10). rivastigmine is a second-generation carbamate-based reversible non-competitive AChE and butyrylChE (BuChE) inhibitor. The reason for choosing the inhibitor is that an inhibitory effect sustains for a long period of time, the inhibitor is specific to the brain (Enz, A. et al., Prog. Brain Res. 98, 431-438, 1993), and the inhibitor selectively increases cholin activity in hippocampus and cortex (Weinstock, M., et al., J. Neural Transm. Suppl. 43, 219-225, 1994).
# (§2) Whether rivastigmine administration could also rescue the increased anxiety phenotype of PLC-β4^−/− mice was investigated. To this end, rivastigmine (0.5 mg/kg, i.p.) was injected into PLC-β4^−/− mice and, 60 min after injection, the rivastigmine treated group was subjected to three anxiety behavioral assays.
# PLC-β4^−/− mice [3] = assay: Elevated plus-maze after rivastigmine; type: in vivo; conditions: 0.5 mg/kg i.p., 60 min before test
# Protocol: The elevated plus-maze consists of two open and two enclosed arms of the same size (45^┘ 5 cm) with walls 15 cm high. The arms, constructed of black acrylic, radiate from a central platform (5^┘ 5 cm) to form a plus sign. The entire apparatus was elevated to a height of 30 cm above floor level. Each mouse was placed in the central platform facing one of the open arms. The number of entries into the open and closed arms and the time spent on the open and closed arms were recorded during a 5 min test period (Parks, C. L. et al., Proc. Natl. Acad. Sci. USA 95, 10734-10739; 1998; Ramboz, S. et al., Proc. Natl. Acad. Sci. USA 95, 14476-14481, 1998; Gross, C. et al., Nature 416, 396-400, 2002).
# (§3) rivastigmine (Novartis Pharma, Basel, Switzerland), which is a cholinergic enhancer, was dissolved in saline. Animals were injected intraperitoneally (i.p.) with 0.5 mg/kg rivastigmine 60 min before the start of anxiety behavioral test (total volume, 5 ml/kg). […]
# PLC-β4^−/− mice [4] = assay: Light/dark transition test after rivastigmine; type: in vivo; conditions: 0.5 mg/kg i.p., 60 min before test
# Source text: The apparatus used for the light/dark transition test consisted of a cage (25×40×20 cm) divided into two compartments by a black partition containing a small opening that allows the mouse to move from one compartment to the other. One compartment, comprising two-thirds of the surface area, was made of white plastic and was brightly illuminated; the adjoining smaller compartment was black and dark. Mice were placed in the dark compartment and allowed to move freely between the two chambers for 5 min. The number of transitions between the two compartments, time spent in each chamber, and latency to the first transition were recorded (Welch, J. M. et al., Nature 448, 894-900, 2007).
# as §3
# PLC-β4^−/− mice [5] = assay: Three anxiety behavioral assays after rivastigmine (overall); type: in vivo; conditions: 0.5 mg/kg i.p., 60 min after injection
# Protocol: as §1, §2
# [6] = system: hippocampus acetylcholine concentration; conditions: 0.5 mg/kg of rivastigmine; microdialysis; cited from earlier work
smiles,measurement,setting,value
CCN(C)C(=O)Oc1cccc([C@H](C)N(C)C)c1 [rivastigmine],amplitude of the cholinergic theta rhythms,"PLC-β4^−/− mice [1]; alert immobility, novel environment",restored to a level similar to that of the wild-type mice injected with saline
same,amplitude of non-cholinergic type I theta rhythms,"PLC-β4^−/− mice [1]; recorded during locomotion (walking) in new open field, vs saline-injected KO and WT mice",not significantly different among the three groups
same,locomotion in the center of the open field,PLC-β4^−/− mice [2],wild-type levels of locomotion in the center of the open field
same,thigmotaxis index,PLC-β4^−/− mice [2],reduced thigmotaxis index to the same levels as those in wild-type mice injected with saline
same,time spent in the central sector of the open field,PLC-β4^−/− mice [2],levels comparable with those in wild-type mice injected with saline
same,total locomotion activities in the open field,PLC-β4^−/− mice [2],wild-type levels of total locomotion activities
same,entries into the open arms,PLC-β4^−/− mice [3],indistinguishable from wild-type mice injected with saline
same,total entries into the closed and open arms,PLC-β4^−/− mice [3]; three groups,did not differ among the three groups
same,time in the light chamber,PLC-β4^−/− mice [4],indistinguishable from that of wild-type mice injected with saline
same,transitions between light and dark boxes,PLC-β4^−/− mice [4],indistinguishable from that of wild-type mice injected with saline
same,increased anxiety phenotype in each of the three anxiety tests,PLC-β4^−/− mice [5],showed a reversal of the increased anxiety phenotype
same,increase of hippocampus acetylcholine concentration,[6],about 100%

# From patent US20120143074A1, “METHOD OF EVALUATING SUITABILITY FOR DRUG THERAPY FOR THE PREVENTION AND TREATMENT OF ANXIETY DISORDERS USING CHOLINERGIC TYPE II THETA RHYTHM” (priority 2009, published 2012)
